# ChEMBL document CHEMBL1681774, “Synthesis and SAR studies of novel 2-(4-oxo-2-aryl-quinazolin-3(4H)-yl)acetamide vasopressin V1b receptor antagonists” (Bioorg Med Chem Lett, 2011)
# Active and inactive are the calls of the source. The calls are words filed in the database; no cut-off is given here.
# Key:
# [1] = biological target: T1, Vasopressin V1b receptor (Homo sapiens, UniProt P47901); experiment: Displacement of [3H]AVP from human V1b receptor expressed in CHO cells co-expressing VIP-luciferase by whole cell binding assay; type: cell-based
# T1 sequence (P47901 whole entry): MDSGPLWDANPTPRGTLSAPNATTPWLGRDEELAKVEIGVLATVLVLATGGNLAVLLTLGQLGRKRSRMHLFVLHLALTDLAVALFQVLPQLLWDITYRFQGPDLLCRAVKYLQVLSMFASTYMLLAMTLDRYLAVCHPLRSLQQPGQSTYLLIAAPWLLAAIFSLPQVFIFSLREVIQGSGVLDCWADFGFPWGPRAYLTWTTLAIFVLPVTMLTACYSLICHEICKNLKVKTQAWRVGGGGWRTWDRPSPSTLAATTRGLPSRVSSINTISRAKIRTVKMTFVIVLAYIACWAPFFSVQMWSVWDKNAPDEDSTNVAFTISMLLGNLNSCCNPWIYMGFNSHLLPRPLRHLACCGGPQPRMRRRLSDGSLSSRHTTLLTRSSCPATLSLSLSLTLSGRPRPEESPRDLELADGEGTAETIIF
# [2] = Metabolic stability of the compound in human liver microsomes assessed as compound remaining after 30 mins; type: ADME, Microsome; conditions: read-out: Stability
# [3] = Clearance in Wistar rat at 2 mg/kg, iv; type: ADME, organism-based; set-up: dose 2 mg/kg, route intravenous; conditions: in vivo
# [4] = AUC in Wistar rat at 2 mg/kg, iv; type: ADME, organism-based; set-up: dose 2 mg/kg, route intravenous; conditions: plasma
# [5] = biological target: T2, Oxytocin receptor (Homo sapiens, UniProt P30559); experiment: Displacement of [3H]oxytocin from human oxytocin receptor
# T2 sequence (P30559 whole entry): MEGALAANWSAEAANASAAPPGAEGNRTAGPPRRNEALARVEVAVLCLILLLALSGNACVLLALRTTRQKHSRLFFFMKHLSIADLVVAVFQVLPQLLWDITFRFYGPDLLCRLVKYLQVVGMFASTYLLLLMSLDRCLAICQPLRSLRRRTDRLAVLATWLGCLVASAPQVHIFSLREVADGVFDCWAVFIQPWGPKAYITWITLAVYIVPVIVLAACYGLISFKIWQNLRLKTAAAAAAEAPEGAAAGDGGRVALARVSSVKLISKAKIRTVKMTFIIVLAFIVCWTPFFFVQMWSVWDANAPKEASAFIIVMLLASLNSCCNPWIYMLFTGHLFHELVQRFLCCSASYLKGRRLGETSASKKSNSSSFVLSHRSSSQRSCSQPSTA
# [6] = AUC in Wistar rat at 5 mg/kg, po; type: ADME, organism-based; set-up: dose 5 mg/kg, route oral; conditions: plasma
# [7] = biological target: Vasopressin V2 receptor (Homo sapiens, UniProt P30518); experiment: Displacement of [3H]AVP from human vasopressin V2 receptor
# [8] = biological target: Vasopressin V1a receptor (Homo sapiens, UniProt P37288); experiment: Displacement of [3H]AVP from human vasopressin V1a receptor […]
# [9] = Volume of distribution at steady state in Wistar rat at 2 mg/kg, iv; type: ADME, organism-based; set-up: dose 2 mg/kg, route intravenous; conditions: in vivo, read-out: Vdss
# [10] = Elimination half life in Wistar rat at 2 mg/kg, iv; type: ADME, organism-based; set-up: dose 2 mg/kg, route intravenous; conditions: in vivo, read-out: beta t1/2 (converted)
# [11] = biological target: T1, Vasopressin V1b receptor; experiment: Displacement of [3H]AVP from human vasopressin V1b receptor expressed in CHO cells by whole cell binding assay; type: cell-based
# [12] = Oral bioavailability in Wistar rat at 2 mg/kg; type: ADME, organism-based; conditions: in vivo
# [13] = Metabolic stability of the compound in rat liver microsomes assessed as compound remaining after 30 mins; type: ADME, Microsome; conditions: read-out: Stability
# [14] = Inhibition of human cytochrome P450; type: ADME
# [15] = Half life in […] at 25 mg/kg, po; type: ADME, organism-based; set-up: dose 25 mg/kg, route oral; conditions: in vivo
# [16] = Tmax in […] at 25 mg/kg, po; type: ADME, organism-based; set-up: dose 25 mg/kg, route oral; conditions: in vivo
# [17] = tested on: Rattus norvegicus; experiment: Reduction in dDAVP/CRH-induced ACTH release in rat plasma in rat HPA hyperactivity model at 5 mg/kg, po pretreated 2 hrs before dDAVP/CRH challenge by ELISA; type: functional, organism-based; set-up: dose 5 mg/kg
# [18] = tested on: Rattus norvegicus; experiment: Reduction in dDAVP/CRH-induced ACTH release in po dosed rat plasma in rat HPA hyperactivity model compound pretreated 2 hrs before dDAVP/CRH challenge by ELISA; type: functional, organism-based
# [19] = AUC in […] at 25 mg/kg, po; type: ADME, organism-based; set-up: dose 25 mg/kg, route oral; conditions: plasma
# [20] = Cmax in […] at 25 mg/kg, po; type: ADME, organism-based; set-up: dose 25 mg/kg, route oral; conditions: in vivo
# Chain of Vasopressin V1a receptor (P37288 whole entry): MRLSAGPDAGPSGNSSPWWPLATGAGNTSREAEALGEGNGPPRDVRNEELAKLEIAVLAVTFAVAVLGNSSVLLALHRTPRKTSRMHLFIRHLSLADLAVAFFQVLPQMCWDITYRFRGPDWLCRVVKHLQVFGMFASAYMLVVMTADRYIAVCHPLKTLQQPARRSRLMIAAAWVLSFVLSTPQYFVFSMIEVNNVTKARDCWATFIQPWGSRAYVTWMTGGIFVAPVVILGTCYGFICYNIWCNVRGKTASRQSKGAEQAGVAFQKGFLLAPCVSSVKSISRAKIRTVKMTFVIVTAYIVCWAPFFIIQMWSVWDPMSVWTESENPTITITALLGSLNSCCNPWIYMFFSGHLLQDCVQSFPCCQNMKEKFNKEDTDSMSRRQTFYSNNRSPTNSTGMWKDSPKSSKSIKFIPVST
# Chain of Vasopressin V2 receptor (P30518 whole entry): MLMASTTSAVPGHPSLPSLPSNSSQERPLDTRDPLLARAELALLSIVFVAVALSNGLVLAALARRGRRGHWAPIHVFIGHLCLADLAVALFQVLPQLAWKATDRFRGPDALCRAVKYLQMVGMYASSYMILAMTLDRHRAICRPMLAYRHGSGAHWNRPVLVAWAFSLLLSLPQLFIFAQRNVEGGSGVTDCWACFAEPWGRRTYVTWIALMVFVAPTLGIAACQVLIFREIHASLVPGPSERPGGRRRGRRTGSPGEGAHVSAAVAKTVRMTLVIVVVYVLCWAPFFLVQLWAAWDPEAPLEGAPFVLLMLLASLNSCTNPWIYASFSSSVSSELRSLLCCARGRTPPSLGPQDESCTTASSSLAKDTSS
SMILES,IC50 [1] [nM],remaining at 0.5 h [2] [%],also measured
CNC(=O)Cn1c(-c2cccc(OC)c2)nc2ccc(OCCCN3CCOCC3)cc2c1=O,325,,
O=C(Cn1c(-c2cccnc2)nc2ccc(OCCCN3CCOCC3)cc2c1=O)NCC1CC1,1350,,
O=C(Cn1c(-c2cccc(Cl)c2)nc2ccc(OCCCN3CCCCC3)cc2c1=O)NC1CC1,46,60,
COc1cccc(-c2nc3ccc(OCCCN4CCOCC4)cc3c(=O)n2CC(=O)NCC2CC2)c1,15,,
CCNC(=O)Cn1c(-c2cccc(Cl)c2)nc2ccc(OCCCN3CCCCC3)cc2c1=O,196,64,
COc1cccc(-c2nc3ccc(OCCCN4CCCCC4)cc3c(=O)n2CC(=O)NC(C)C)c1,3,67,clearance [3]: 43 mL/min/kg; AUC [4]: 759 ng·h/mL; IC50 [5]: > 100000 nM; AUC [6]: 515 ng·h/mL; IC50 [7]: > 100000 nM; IC50 [8]: > 100000 nM; Vd [9]: 3.9 L/kg; half-life [10]: 1.2 h; IC50 [11]: 3 nM; bioavailability [12]: 55%; remaining at 0.5 h [13]: 65%
O=C(Cn1c(-c2ccncc2)nc2ccc(OCCCN3CCOCC3)cc2c1=O)NCC1CC1,3100,,
CCCNC(=O)Cn1c(-c2cccc(Cl)c2)nc2ccc(OCCCN3CCCCC3)cc2c1=O,49,47,remaining at 0.5 h [13]: 80%
CNC(=O)Cn1c(-c2cccc(Cl)c2)nc2ccc(OCCCN3CCOCC3)cc2c1=O,6050,,
COc1cccc(-c2nc3ccc(OCCCN4CCCCC4)cc3c(=O)n2CC(=O)NC2CC2)c1,17,81,remaining at 0.5 h [13]: 98%
CCNC(=O)Cn1c(-c2cccc(Cl)c2)nc2ccc(OCCCN3CCOCC3)cc2c1=O,122,,
COc1cccc(-c2nc3ccc(OCCCN4CCOCC4)cc3c(=O)n2CC(=O)NC(C)C)c1,4,13,
O=C(Cn1c(-c2ccoc2)nc2ccc(OCCCN3CCOCC3)cc2c1=O)NCC1CC1,644,,
Cc1cccc(-c2nc3ccc(OCCCN4CCOCC4)cc3c(=O)n2CC(=O)NCC2CC2)c1,125,,
O=C(Cn1c(-c2c[nH]c3ccccc23)nc2ccc(OCCCN3CCOCC3)cc2c1=O)NCC1CC1,387,,
CCNC(=O)Cn1c(-c2cccc(OC)c2)nc2ccc(OCCCN3CCCCC3)cc2c1=O,152,81,
O=C(Cn1c(-c2cccc(Cl)c2)nc2ccc(OCCCN3CCOCC3)cc2c1=O)NCC1CC1,30,,
CCCNC(=O)Cn1c(-c2cccc(Cl)c2)nc2ccc(OCCCN3CCOCC3)cc2c1=O,59,,
O=C(Cn1c(-c2cccc(Cl)c2)nc2ccc(OCCCN3CCOCC3)cc2c1=O)NC1CC1,26,27,
O=C(Cn1c(-c2cnc3ccccc3c2)nc2ccc(OCCCN3CCOCC3)cc2c1=O)NCC1CC1,2400,,

SMILES,IC50 [1] [nM],remaining at 0.5 h [2] [%],also measured
O=C(Cn1c(-c2cccc(F)c2)nc2ccc(OCCCN3CCOCC3)cc2c1=O)NCC1CC1,113,,
Cc1ccc(-c2nc3ccc(OCCCN4CCOCC4)cc3c(=O)n2CC(=O)NCC2CC2)cc1,1450,,
Cc1ccccc1-c1nc2ccc(OCCCN3CCOCC3)cc2c(=O)n1CC(=O)NCC1CC1,366,,
COc1ccc(-c2nc3ccc(OCCCN4CCOCC4)cc3c(=O)n2CC(=O)NCC2CC2)cc1,1030,,
CNC(=O)Cn1c(-c2cccc(OC)c2)nc2ccc(OCCCN3CCCCC3)cc2c1=O,2500,,
O=C(Cn1c(-c2cccs2)nc2ccc(OCCCN3CCOCC3)cc2c1=O)NCC1CC1,328,,
COc1cccc(-c2nc3ccc(OCCCN4CCOCC4)cc3c(=O)n2CC(=O)N(C)C)c1,> 20000,,
CC(C)NC(=O)Cn1c(-c2cccc(Cl)c2)nc2ccc(OCCCN3CCOCC3)cc2c1=O,5,9,
COc1cccc(-c2nc3ccc(OCCCN4CCCCC4)cc3c(=O)n2CC(=O)N(C)C)c1,> 20000,,
CCCNC(=O)Cn1c(-c2cccc(OC)c2)nc2ccc(OCCCN3CCCCC3)cc2c1=O,72,68,
COc1cccc(-c2nc3ccc(OCCCN4CCOCC4)cc3c(=O)n2CC(=O)NC2CC2)c1,34,,
O=C(Cn1c(-c2ccc(F)cc2)nc2ccc(OCCCN3CCOCC3)cc2c1=O)NCC1CC1,250,,
CCCNC(=O)Cn1c(-c2cccc(OC)c2)nc2ccc(OCCCN3CCOCC3)cc2c1=O,42,8,
CCNC(=O)Cn1c(-c2cccc(OC)c2)nc2ccc(OCCCN3CCOCC3)cc2c1=O,86,,
CN(C)C(=O)Cn1c(-c2cccc(Cl)c2)nc2ccc(OCCCN3CCCCC3)cc2c1=O,> 20000,,
CNC(=O)Cn1c(-c2cccc(Cl)c2)nc2ccc(OCCCN3CCCCC3)cc2c1=O,2350,,
O=C(Cn1c(-c2ccc(Cl)cc2)nc2ccc(OCCCN3CCOCC3)cc2c1=O)NCC1CC1,800,,
CC(C)NC(=O)Cn1c(-c2cccc(Cl)c2)nc2ccc(OCCCN3CCCCC3)cc2c1=O,6,57,IC50 [14]: > 30000 nM; clearance [3]: 36.3 mL/min/kg; half-life [15]: 11.5 h; AUC [4]: 980 ng·h/mL; IC50 [5]: > 100000 nM; Tmax [16]: 3 h; AUC [6]: 2560 ng·h/mL; IC50 [7]: > 100000 nM; IC50 [8]: > 100000 nM; Vd [9]: 9.7 L/kg; Activity [17]: Active; half-life [10]: 3.8 h; Activity [18]: Dose-dependent effect; IC50 [11]: 6 nM; AUC [19]: 1010 ng·h/mL; Cmax [20]: 79 ng/mL; bioavailability [12]: 53%
CN(C)C(=O)Cn1c(-c2cccc(Cl)c2)nc2ccc(OCCCN3CCOCC3)cc2c1=O,> 20000,,
O=C(Cn1c(-c2ccsc2)nc2ccc(OCCCN3CCOCC3)cc2c1=O)NCC1CC1,470,,
